The target in one test is T1, FLT3 (D835H) (Homo sapiens, UniProt P36888, D835H).
T1 construct: host or cells: T7 phage in E. coli (BL21-derived) or HEK-293
T1 sequence (P36888 27-993 D835H): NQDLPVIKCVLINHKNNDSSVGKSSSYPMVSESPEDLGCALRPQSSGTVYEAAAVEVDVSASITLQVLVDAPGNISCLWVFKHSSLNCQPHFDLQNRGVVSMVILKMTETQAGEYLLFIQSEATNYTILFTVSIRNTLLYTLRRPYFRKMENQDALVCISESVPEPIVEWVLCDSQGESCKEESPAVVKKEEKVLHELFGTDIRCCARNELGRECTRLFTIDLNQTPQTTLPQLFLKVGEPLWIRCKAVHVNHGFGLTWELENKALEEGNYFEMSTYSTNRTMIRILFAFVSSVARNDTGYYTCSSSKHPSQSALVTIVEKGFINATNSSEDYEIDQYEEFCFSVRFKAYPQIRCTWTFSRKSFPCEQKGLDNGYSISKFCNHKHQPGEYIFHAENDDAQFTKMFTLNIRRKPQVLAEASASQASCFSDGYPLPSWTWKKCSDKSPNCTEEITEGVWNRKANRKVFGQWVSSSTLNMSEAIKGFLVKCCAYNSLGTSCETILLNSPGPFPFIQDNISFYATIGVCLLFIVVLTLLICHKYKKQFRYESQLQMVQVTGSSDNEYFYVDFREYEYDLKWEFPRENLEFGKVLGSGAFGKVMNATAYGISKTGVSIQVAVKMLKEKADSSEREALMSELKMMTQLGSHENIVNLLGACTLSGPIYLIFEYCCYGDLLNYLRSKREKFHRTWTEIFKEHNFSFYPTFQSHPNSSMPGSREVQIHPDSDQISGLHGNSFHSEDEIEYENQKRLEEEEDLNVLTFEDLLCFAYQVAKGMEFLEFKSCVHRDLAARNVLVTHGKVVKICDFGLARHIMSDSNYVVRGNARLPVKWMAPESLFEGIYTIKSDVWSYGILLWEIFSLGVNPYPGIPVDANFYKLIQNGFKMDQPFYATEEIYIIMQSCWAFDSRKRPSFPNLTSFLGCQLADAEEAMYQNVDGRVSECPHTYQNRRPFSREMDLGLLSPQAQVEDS
Kind of test: KINOMEscan kinase binding assay, FLT3 (D835H). The method, then: The kinase assay was conducted using KINOMEscan™.
Kinase-tagged T7 phage strains were grown in parallel in 24-well blocks in an E. coli host derived from the BL21 strain. E. coli were grown to log-phase and infected with T7 phage from a frozen stock (multiplicity of infection=0.4) and incubated with shaking at 32° C. until lysis (90-150 minutes). The lysates were centrifuged (6,000×g) and filtered (0.2 μm) to remove cell debris. The remaining kinases were produced in HEK-293 cells and subsequently tagged with DNA for qPCR detection. Streptavidin-coated magnetic beads were treated with biotinylated small molecule ligands for 30 minutes at room temperature to generate affinity resins for kinase assays. The liganded beads were blocked with excess biotin and washed with blocking buffer (SeaBlock (Pierce), 1% BSA, 0.05% Tween 20, 1 mM DTT) to remove unbound ligand and to reduce non-specific phage binding. Binding reactions were assembled by combining kinases, liganded affinity beads, and test compound (Compound 23) in 1× binding buffer (20% SeaBlock, 0.17×PBS, 0.05% Tween 20, 6 mM DTT). Test compound were prepared as 40× stocks in 100% DMSO and directly diluted into the assay. All reactions were performed in polypropylene 384-well plates in a final volume of 0.04 ml. […] The kinase concentration in the eluates was measured by qPCR. […]

Test [1] has as its system Human AML cell line MOLM-13 (FLT3-ITD positive and wild type TP53 gene). Kind of test: Human MOLM-13 AML systemic mouse xenograft model, survival. The note with it: MOLM-13 systemic model, Compound 23 10 mg/kg, Compound C 20 mg/kg, p.o. q2d × 21 d. It counts as in vivo. The method, then:
The formulation of Compound C was prepared as homogenous suspension in 0.2% HPMC using a mortar. The drug suspension was prepared every three days or once a week and placed at 4° C. when not in use. Before use, the drug suspension was placed at room temperature and shaken to mix well. The formulation of Compound C was administered to mice via p.o. in a volume of 10 mL/kg.
The formulation of Compound 23 was prepared in 0.2% HPMC in a mortar to generate homogenous suspension. The drug suspension was prepared once every other day and placed at 4° C. when not in use. Before use, the drug suspension was placed at room temperature and shaken well. The formulation of Compound 23 was administered to mice via p.o. in a volume of 10 mL/kg.
MOLM-13 cell lines (Human AML cell line MOLM-13 (FLT3-ITD positive and wild type TP53 gene)) were maintained in RPMI-1640 (Cat. C11875500BT, GIBCO) with 10% fetal bovine serum (Cat. 10099-141, GIBCO), 1% L-glutamine, 100 U/mL penicillin G and 100 μg/mL streptomycin (Cat. GNM15140, Hangzhou Geno Biomedical Technology Co., Ltd). Cells were incubated at 37° C. in a humidified incubator with 5% CO2.
Six to eight weeks old, female, NOD SCID and BALB/c nude mice were used. Animals were obtained from Vital River Laboratories (VRL, Beijing, China, license number SCXK(J) 2012-0001 and SCXK(J) 2016-0006). The body weights were 17-24 g.
MOLM-13 systemic tumor model were established by injecting tumor cells into the tail vein (10×10^6 cells/mouse) under the sterile condition. To establish the MOLM-13 systemic model, all animals were intraperitoneally injected (i.p.) with cyclophosphamide (150 mg/kg) for two consecutive days before the inoculation of MOLM-13 cells. On the third day after cell inoculation, animals were randomized into 10 mice per group and treatment was initiated (day 1) according to Table 2.
The animals were euthanized when the experimental animals had symptoms such as weight loss and weight loss greater than 20%, limb paralysis, tumor metastasis to the eye causing ocular protrusion, tumor metastasis to the abdominal cavity causing abdominal enlargement. These severe health issues were considered as the same as animal death caused by tumor growth and the affected animals were sacrificed immediately.
The date of the last mouse died (the last measurement) was used for analysis of median overall survival and the generation of Kaplan-Meier plots. Survival curves of different treatment groups were compared using log-rank test with Bonferroni's multiple test. All data were analyzed in SPSS version 18.0 (IBM, Armonk, NY, U.S.A.). Prism version 6 (GraphPad Software Inc., San Diego, CA, U.S.A.) was used for graphic presentation.
On the technique in general: A xenograft is tissue or cells of one species grown in another, often human tumour cells in immunodeficient mice.

The structures appear in SMILES notation.

Take `Cc1ccc(C(=O)Nc2ccc(CN3CCN(C)CC3)c(C(F)(F)F)c2)cc1C#Cc1cnc2[nH]ncc2c1` [Compound 23, 3-(2-(1H-pyrazolo[3,4-b]pyridin-5-yl)ethynyl)-4-methyl-N-(4-((4-methylpiperazin-1-yl)methyl)-3-(trifluoromethyl)phenyl)benzamide]: on FLT3 (D835H) (10 nM), the “% Ctrl@10 nM” value came out at 18 % Ctrl. Further, the “% Ctrl@100 nM” value on FLT3 (D835H) (100 nM) is 2.2 % Ctrl. Moreover, the “Median survival time of mice” value in test [1] (vehicle 19 days) was 29 days. Besides, the “Prolonged survival time of mice” value in test [1] (versus vehicle) is on record as 10 days.

Values taken from patent publication US12233047B2, “Pharmaceutical combination and use thereof” (ASCENTAGE PHARMA (SUZHOU) CO., LTD., priority 2019, dated 2025).
